From US20240246935A1 (Plexium, Inc., priority 2021, published 2024) come the findings set out here.

The target of experiment [1] is human E3 ligase component cereblon (CRBN) (Homo sapiens (Human), UniProt Q96SW2). In words: Cereblon (CRBN) target engagement, NanoBRET TE Intracellular E3 Ligase Assay in transfected HEK-293T cells. The settings on record: read-out: CRBN Binding EC50. How it is done:
HEK293T cells were harvested ca. 75% confluent with trypsin and plated (500,000 cells/well) in a 6-well tissue culture plate in 2 mL of Dulbecco's Modified Eagle Medium (DMEM)+10% Fetal Bovine Serum (FBS) and incubated overnight at 37° C.
The NanoLuc-CRBN fusion vector (Nluc-CRBN; Promega) contains the coding region of human E3 ligase component cereblon (CRBN) fused to the C-terminus of the NanoLuc luciferase coding region. A mixture of 10 ng Nluc-CRBN and 990 ng DDB1 Expression Vector (Promega) was added to 125 μL Opti-Minimum Essential Medium (Opti-MEM™; Thermo Fisher) along with 2 μL P3000 reagent (Thermo Fisher) in a 1.5 mL epppendorf tube. This solution was added to Lipofectamine 3000 transfection reagent (5 μL; Thermo Fisher) in Opti-MEM (125 μL), mixed well, and incubated for 15 minutes at room temperature. The transfection mixture was added dropwise to cells and incubated overnight at 37° ° C., 5% CO2. Following transfection, cells were washed once with PBS, and trypsin (250 μL) was added and incubated 30-45 sec to dislodge cells. Complete media (2 mL) was added to resuspend cells to form a single cell suspension. Cells were centrifuged at 320×g for 5 min at room temperature, the supernatant was removed, and the cell pellet resuspended in Opti-MEM (3 mL; wash step repeated×2). After final resuspension in 5 mL Opti-MEM, cells were counted and resuspended at 200,000 cells/mL in Opti-MEM.
Cereblon target engagement was monitored by Bioluminescence Resonance Energy Transfer (BRET) in transfected HEK-293T cells using the NanoBRET TE Intracellular E3 Ligase Assay (Promega). Briefly, 384-well plates (white opaque plates, Corning 3574, low binding surface) were seeded with transfected HEK-293T cells (38 μL/well). 2 μL of 10 μM CRBN tracer (diluted 1:5 in Tracer Dilution Buffer) was added to each well. Plates were centrifuged at 320×g for 1 min at room temperature. Test compounds were added in a 11-point dilution series (typically 10 μM to […]) using a TECAN D300e Digital Dispenser. Plates were shaken for 2 minutes on a microplate shaker to mix compounds. Plates were centrifuged at 320×g for 1 min at room temperature, and subsequently incubated for 2 hours at 37° C.
After incubation, plates were allowed to cool to room temperature for 15 minutes. 20 μL of 3× Complete NanoBRET™ Nano-Glo® Substrate plus Inhibitor Solution (Promega, 1:166 Substrate and 1:500 dilution of Extracellular NanoLuc® Inhibitor diluted in Opti-MEM) were added to each well. Plates were incubated with shaking at room temperature for 3 minutes covered with foil. Plates were read on a CLARIOstar microplate reader (BMG LabTech), measuring at 450 nm (donor emission) and 610 nm (acceptor emission). The IC50 values were determined by regression to best fit four-parameter logistic curves using GraphPad Prism.
In general terms: BRET reads energy transfer from a luciferase to a nearby fluorophore.

In another experiment the test system is IKZF2 (Helios). In words: IKZF2 reporter degradation assay (HEK 293T IKZF2-mNeonGreen reporter cell line). Format: cell-based, human. The conditions noted are these: 1 μM compound, 24 hour incubation, HEK 293T IKZF2-mNeonGreen reporter. An excerpt: Polycistronic plasmids were constructed for the mammalian expression of fluorescent reporter fusions of human transcription factors IKZF1 (Ikaros), IKZF2 (Helios), and IKZF3 (Aiolos). The respective protein sequences had their C-terminal end joined to a GGGGS linker repeated three times followed by mNeonGreen, P2A sequence, and mScarlet. The DNA sequences of the open reading frames are as follows:
IKZF1, IKZF2, and IKZF3 constructs were cloned into the UCOE Hygromycin expression vectors (Millipore Sigma). Reporter constructs were transfected using cationic lipid reagents into adherent HEK 293T cells and stable integrants were selected by treatment with 200 μg/mL hygromycin B. Clonal populations were obtained from the population of stable integrants either by limiting dilution or fluorescence activated cell sorting.
The clonal stable cell lines were maintained under constant 200 μg/mL hygromycin B selection while being passaged for use in the degradation assays. […] The fluorescence intensity of the IKZF1/2/3-mNeonGreen (FITC channel) and mScarlet (PE channel) reporters were routinely analyzed by flow cytometry to confirm consistent expression levels between experiments.
The IKZF1/IKZF2/IKZF3 degradation assays were carried out by harvesting the HEK 293T reporter cell lines and resuspending the cells in media formulated for reduced background fluorescence (FluoroBrite; Thermo Fisher). The respective cell lines were seeded at a density of 4000 cells/well into black-walled 384-well optical grade assay tissue culture plates. The cells were incubated overnight at 37° C. to allow for attachment to the assay plate. Dilutions of the compounds were prepared in DMSO from 10 mM compound stocks. The assay plates were treated with appropriate concentrations of the compounds by dispensing the DMSO dilutions in quadruplicate wells with an upper limit of 0.5% final DMSO.
After 24 hour incubation with the compounds, the assay plates were imaged on an ImageXpress Pico microscopy system (cells maintained at 37° C. during imaging) to obtain the fluorescent readouts. The assay plates were imaged in the FITC and Tetramethylrhodamine (TRITC) channels to obtain the mNeonGreen fluorescence intensity (reporter degradation data) and mScarlet fluorescence intensity (for cell segmentation). 293T-IKZF1 and 293T-IKZF3 reporter cell lines were imaged with exposures of 500 milliseconds (ms) for both FITC and TRITC channels, while the 293T-IKZF2 reporter cell line was imaged with exposures of 1000 ms for FITC and 1250 ms for TRITC. The resulting data was analyzed with Cell Reporter Xpress software using the 2-channel cell scoring analysis with a “percent positive” readout. The TRITC channel was selected for the “nuclei” segmentation with a threshold of 20 while the FITC channel was selected for the “Marker 1” segmentation and a threshold of 100 for the IKZF1 and IKZF3 reporter lines. […] The minimum segmentation width was set to 6 micrometers and the maximum segmentation width was set to 15 micrometers for all cell lines. The DCs calculations were determined by regression to best fit four-parameter logistic curves using GraphPad Prism.

The structures appear in SMILES notation.

human E3 ligase component cereblon (CRBN), sequence (Q96SW2 whole entry): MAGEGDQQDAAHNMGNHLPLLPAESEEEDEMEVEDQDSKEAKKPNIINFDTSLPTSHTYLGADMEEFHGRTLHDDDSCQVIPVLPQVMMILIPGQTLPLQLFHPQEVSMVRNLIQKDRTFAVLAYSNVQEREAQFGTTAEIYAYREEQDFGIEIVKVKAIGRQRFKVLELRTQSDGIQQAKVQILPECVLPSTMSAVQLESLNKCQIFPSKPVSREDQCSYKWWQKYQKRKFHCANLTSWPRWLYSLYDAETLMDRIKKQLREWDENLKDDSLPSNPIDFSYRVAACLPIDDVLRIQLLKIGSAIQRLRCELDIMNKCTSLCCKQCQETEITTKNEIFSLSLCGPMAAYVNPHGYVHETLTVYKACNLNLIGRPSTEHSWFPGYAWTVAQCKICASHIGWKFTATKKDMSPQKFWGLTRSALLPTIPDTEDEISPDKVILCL
human E3 ligase component cereblon (CRBN), sequence (Q16531 whole entry partner): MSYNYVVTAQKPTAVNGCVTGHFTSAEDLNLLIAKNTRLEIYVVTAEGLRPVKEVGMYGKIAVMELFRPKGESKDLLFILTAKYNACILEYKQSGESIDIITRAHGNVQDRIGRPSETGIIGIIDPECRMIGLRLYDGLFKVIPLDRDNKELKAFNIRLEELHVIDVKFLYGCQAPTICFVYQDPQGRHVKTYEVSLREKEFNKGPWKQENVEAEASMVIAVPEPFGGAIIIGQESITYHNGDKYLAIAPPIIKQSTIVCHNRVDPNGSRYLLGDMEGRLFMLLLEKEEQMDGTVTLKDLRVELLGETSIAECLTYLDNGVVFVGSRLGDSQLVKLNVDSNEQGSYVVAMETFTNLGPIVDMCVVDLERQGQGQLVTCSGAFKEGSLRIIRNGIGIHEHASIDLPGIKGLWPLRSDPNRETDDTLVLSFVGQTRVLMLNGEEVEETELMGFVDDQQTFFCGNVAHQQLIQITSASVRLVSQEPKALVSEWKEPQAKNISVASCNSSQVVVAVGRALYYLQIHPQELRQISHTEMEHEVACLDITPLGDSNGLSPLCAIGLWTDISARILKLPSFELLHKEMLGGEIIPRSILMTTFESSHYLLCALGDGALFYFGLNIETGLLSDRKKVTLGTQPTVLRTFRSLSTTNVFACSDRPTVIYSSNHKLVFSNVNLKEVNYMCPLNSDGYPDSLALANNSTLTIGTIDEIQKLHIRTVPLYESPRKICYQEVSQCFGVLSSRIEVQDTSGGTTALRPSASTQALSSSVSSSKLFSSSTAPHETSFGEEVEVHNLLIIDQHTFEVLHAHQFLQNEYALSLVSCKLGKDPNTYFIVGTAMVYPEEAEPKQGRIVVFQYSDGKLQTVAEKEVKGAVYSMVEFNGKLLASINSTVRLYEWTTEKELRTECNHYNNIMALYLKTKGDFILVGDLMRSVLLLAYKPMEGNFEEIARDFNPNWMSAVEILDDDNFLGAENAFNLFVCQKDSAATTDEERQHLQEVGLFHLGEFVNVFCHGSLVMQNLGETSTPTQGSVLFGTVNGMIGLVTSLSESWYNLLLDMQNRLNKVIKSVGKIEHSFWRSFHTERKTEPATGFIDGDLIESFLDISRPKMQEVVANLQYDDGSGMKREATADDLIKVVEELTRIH

A word on the EC50: it is the midpoint of the concentration-response curve. Consider `O=C1CCC(N2Cc3c(ccc(O[C@H]4CCCC[C@@H]4N4CC(c5ccccc5)C4)c3Cl)C2=O)C(=O)N1` (single isomer, unassigned) [Compound 42], for which, in experiment [1], the EC50 turned out to be 43 nM. In the experiment with IKZF2 (Helios), the “IKZF2 % Degradation @ 1 μM” value is listed as below 15%. Consider `N#Cc1ccccc1C1CN([C@H]2CCCC[C@@H]2Oc2ccc3c(c2)CN(C2CCC(=O)NC2=O)C3=O)C1` (mixture of isomers) [Compound 108, Rac-2-(1-((trans)-2-((2-(2,6-dioxopiperidin-3-yl)-1-oxoisoindolin-5-yl)oxy)cyclohexyl)azetidin-3-yl)benzonitrile], for which the EC50 in experiment [1] was 58 nM. The “IKZF2 % Degradation @ 1 μM” value in the experiment on IKZF2 (Helios) stood at 71.3%.

As to `O=C1CCC(N2Cc3cc(O[C@H]4CCCC[C@H]4N4CC(c5ccccc5)C4)ccc3C2=O)C(=O)N1` (stereo partly drawn) [Compound 128, 3-(1-oxo-5-(((1S,2R)-2-(3-phenylazetidin-1-yl)cyclohexyl)oxy)isoindolin-2-yl)piperidine-2,6-dione], the EC50 in experiment [1] was found to be 18 nM. For the same molecule, in the experiment on IKZF2 (Helios), the “IKZF2 % Degradation @ 1 μM” value is below 15%.

For the molecule `N#Cc1cc(F)ccc1C1CN([C@@H]2CCC[C@H]2Oc2ccc3c(c2)CN(C24CC(C2)C(=O)NC4=O)C3=O)C1` (racemic) [Compound 71, Rac-2-(1-((trans)-2-((2-(2,4-dioxo-3-azabicyclo[3.1.1]heptan-1-yl)-1-oxoisoindolin-5-yl)oxy)cyclopentyl)azetidin-3-yl)-5-fluorobenzonitrile], the EC50 in experiment [1] came to 37 nM. Besides, in the experiment with IKZF2 (Helios), the “IKZF2 % Degradation @ 1 μM” value is on record as below 15%. On the same counts, the results for `N#Cc1cccc(C2CN([C@H]3CCCC[C@@H]3Oc3ccc4c(c3)CN(C3CCC(=O)NC3=O)C4=O)C2)c1` (stereo partly drawn) [Compound 113, 3-(1-((1S,2S)-2-((2-(2,6-dioxopiperidin-3-yl)-1-oxoisoindolin-5-yl)oxy)cyclohexyl)azetidin-3-yl)benzonitrile] are 13 nM and 73.7%. On the same counts, the results for `COc1cccc(C2CN([C@H]3CCCC[C@@H]3Oc3ccc4c(c3)CN(C3CCC(=O)NC3=O)C4=O)C2)c1` (stereo partly drawn) [Compound 126, 3-(5-(((1S,2S)-2-(3-(3-methoxyphenyl)azetidin-1-yl)cyclohexyl)oxy)-1-oxoisoindolin-2-yl)piperidine-2,6-dione] are 5 nM and 84.3%. On the same counts, the results for `O=C1CCC(N2Cc3cc(O[C@H]4CCCC[C@@H]4N4CC(c5cccc(N6CCOCC6)c5)C4)ccc3C2=O)C(=O)N1` (stereo partly drawn) [Compound 112, 3-(5-(((1S,2S)-2-(3-(3-morpholinophenyl)azetidin-1-yl)cyclohexyl)oxy)-1-oxoisoindolin-2-yl)piperidine-2,6-dione] are 25 nM and 72.6%. As for `N#Cc1ccc(C2CN([C@@H]3CCCC[C@@H]3Oc3ccc4c(c3)CN(C3CCC(=O)NC3=O)C4=O)C2)c(Cl)c1` (mixture of isomers) [Compound 75, Rac-3-chloro-4-(1-((cis)-2-((2-(2,6-dioxopiperidin-3-yl)-1-oxoisoindolin-5-yl)oxy)cyclohexyl)azetidin-3-yl)benzonitrile], in experiment [1], the EC50 is 12 nM. Further, the “IKZF2 % Degradation @ 1 μM” value in the experiment on IKZF2 (Helios) was 36.8%. On the same counts, the results for `N#Cc1cc(Cl)ccc1C1CN([C@H]2CCCC[C@@H]2Oc2ccc3c(c2)CN(C2CCC(=O)NC2=O)C3=O)C1` (single isomer, unassigned) [Compound 39] are 8 nM and 84.6%.

For the molecule `N#Cc1cccc(C2CN([C@H]3CCCC[C@H]3Oc3ccc4c(c3)CN(C3CCC(=O)NC3=O)C4=O)C2)c1` (mixture of isomers) [Compound 76, Rac-3-(1-((cis)-2-((2-(2,6-dioxopiperidin-3-yl)-1-oxoisoindolin-5-yl)oxy)cyclohexyl)azetidin-3-yl)benzonitrile], in experiment [1], the EC50 is 22 nM. Further, the “IKZF2 % Degradation @ 1 μM” value with IKZF2 (Helios) was 73.7%. `O=C1NC(=O)C2(N3Cc4cc(O[C@H]5CCCC[C@@H]5N5CC(c6ccc(F)cc6Cl)C5)ccc4C3=O)CC1C2` [Compound 85, 1-(5-(((1S,2S)-2-(3-(2-chloro-4-fluorophenyl)azetidin-1-yl)cyclohexyl)oxy)-1-oxoisoindolin-2-yl)-3-azabicyclo[3.1.1]heptane-2,4-dione]: the EC50 in experiment [1] is above 10000 nM.
